Test results published in patent US8454938B2, “Treatment of respiratory diseases” (Solaeromed Inc., priority 2005, dated 2013).

System: allergic bronchoconstriction in Brown Norway rats
Assay: Allergic asthma model: OVA-sensitized and challenged Brown Norway rats, whole body plethysmography (Penh)
Type: in vivo, Brown Norway rat
Description: An animal model of allergic asthma was developed by sensitizing Brown Norway rats (BNR) to ovalbumin (OVA) and subsequently challenging them with the same allergen.
Male Brown Norway rats (BN/SsdNhsd) 150-199 g were used. A stock solution prepared containing the following ingredients: 10 mL 0.9% of sterile saline solution, 100 μL of ovalbumin solution 1 mg/mL in saline, 1.5 g Al(OH)3 and 10 μL Bordetella Pertussis purified toxin stock solution 500 ng/mL. The solution is mixed thoroughly but not vortexed and then injected intraperitoneally into each rat using a 1 cc syringe and 25-gauge needle.
The rat is placed in the whole body plethysmograph/chamber for approximately 30 minutes in order to calm down. Baseline pulmonary function is recorded for 30 minutes. A solution of ovalbumin 5% in saline is aerosolized for 5 minutes using an ultrasonic nebulizer from Buxco®. The pulmonary function is recorded for 6 hrs during which the effects of different treatments on airway resistance were evaluated.
A whole body plethysmograph from Buxco® was used to monitor pulmonary function and the effect of perfluorocarbon fluids (PFCs) and/or different gas mixture containing CO2 on constricted airways. The plethysmograph consists of a chamber with a pressure transducer along with humidity and temperature probes connected to an amplifier Max II, which is connected to a personal computer and managed by BioSystem XA software. In addition, there are two flow regulators to pump the air or CO2 containing gas mixture in and out of the chamber, and an ultrasonic nebulizer. The primary advantage of the Buxco® methodology is that it is non-invasive and minimizes stress, with animals allowed to freely roam within the measuring chamber. The evaluation of bronchoconstriction was achieved using the Penh (enhanced pause) (an index of airway obstruction) [see Hamelmann et al., (1997) Noninvasive measurement of airway responsiveness in allergic mice using barometric plethysmography, Am J Respir Crit Care Med […] September; 156(3 Pt 1):766-775, incorporated herein by reference]. […]
A gas mixture containing air and CO2 (2, 5, 8, 10 and 20%, respectively, by volume) was delivered to the plethysmograph chamber as described above. The gas was monitored (O2 and CO2) using a gas analyzer from Buxco® and pulmonary function was recorded during and after cessation of the treatment. All treatments were delivered during the late phase response to OVA challenge. […]
FC-43 is placed in the Arcotech dual chamber jet nebulizer and driven by a gas mixture containing air and 5% CO2 by volume. The concentration of FC-43 was determined as outlined above and averaged about 39 mg/liter. The treatment was delivered for 10 minutes. Two minutes after cessation of the first treatment, salbutamol (1 mg/ml) was delivered for 5 minutes using an ultrasonic nebulizer.
FC-77 is placed in the Arcotech dual chamber jet nebulizer and driven by a gas mixture containing air and 5% CO2 by volume. The treatment was delivered for 10 minutes. For technical reasons pulmonary function was evaluated immediately after cessation of the treatment.
Perfluorodecalin is placed in the Arcotech dual chamber jet nebulizer and driven by a gas mixture containing air and 5% CO2 by volume. The treatment was delivered for 10 minutes. For technical reasons pulmonary function was evaluated immediately after cessation of the treatment.
Perfluorooctylbromide is placed in the Arcotech dual chamber jet nebulizer and driven by a gas mixture containing air and 20% CO2 by volume. The treatment was delivered for 10 minutes. For technical reasons pulmonary function was evaluated immediately after cessation of the treatment.
A mixture of approximately equal amounts of FC-43 and FC-77 was placed in the Arcotech dual chamber jet nebulizer and driven by a gas mixture containing air and 5% CO2 by volume. The treatment was delivered for 10 minutes. […]

SMILES	bronchodilation by CO2 alone (2%, 5%, 8%, 10% and 20% CO2 by volume, balance air)	duration of bronchodilation (20% CO2 in air alone)	relaxation of constricted airways (percent reduction of bronchoconstriction), comparison between CO2 concentrations (20% and 8% CO2 compared with 2% and 5% CO2 in air, groups of rats)	drop in Penh (salbutamol 1 mg/ml alone)	duration of drop in Penh before returning to pretreatment levels (salbutamol 1 mg/ml alone) [min]	duration of response (salbutamol 1 mg/ml given after PFC/CO2 treatment)	drop in Penh (response) (salbutamol 1 mg/ml given after PFC/CO2 treatment (FC-43 with 5% CO2 in air, 10 minutes))
O=C=O [CO2, carbon dioxide]	acts as a bronchodilator	approximately 2 minutes	significantly (P<0.05) higher	–	–	–	–
CC(C)(C)NCC(O)c1ccc(O)c(CO)c1 (stereo not shown) [salbutamol]	–	–	–	approximately 60%	5	never returned to pre-treatment levels	approximately 70%
